Values quoted from earlier work as cited in patent US20210353574A1, “Softgels with solid or gel-like polymeric fill matrix” (Bayer HealthCare LLC, priority 2018, published 2021).

Details: used as an analgesic

SMILES	minimum effective dose
COc1ccc2cc([C@H](C)C(=O)O)ccc2c1 [Naproxen]	200 mg
COc1ccc2cc([C@H](C)C(=O)O)ccc2c1 [naproxen sodium]	220 mg
